In US5922580A, “Non-reducing saccharide-forming enzyme, its preparation and uses” (priority 1992, dated 1999):

What was measured:
[1] = Hygroscopicity of product; assay type: physicochemical; conditions: powdery product
[2] = biological target: T1, trehalase derived from pig kidney (Sus scrofa, UniProt I3LIR5); assay: Hydrolysis by trehalase; assay type: biochemical; conditions: one unit trehalase, pH 5.7, 37° C., 18 hours; HPLC
T1 construct: purchased Sigma Chemical Company, St. Louis, USA; host or cells: pig kidney
T1 sequence (I3LIR5 24-583): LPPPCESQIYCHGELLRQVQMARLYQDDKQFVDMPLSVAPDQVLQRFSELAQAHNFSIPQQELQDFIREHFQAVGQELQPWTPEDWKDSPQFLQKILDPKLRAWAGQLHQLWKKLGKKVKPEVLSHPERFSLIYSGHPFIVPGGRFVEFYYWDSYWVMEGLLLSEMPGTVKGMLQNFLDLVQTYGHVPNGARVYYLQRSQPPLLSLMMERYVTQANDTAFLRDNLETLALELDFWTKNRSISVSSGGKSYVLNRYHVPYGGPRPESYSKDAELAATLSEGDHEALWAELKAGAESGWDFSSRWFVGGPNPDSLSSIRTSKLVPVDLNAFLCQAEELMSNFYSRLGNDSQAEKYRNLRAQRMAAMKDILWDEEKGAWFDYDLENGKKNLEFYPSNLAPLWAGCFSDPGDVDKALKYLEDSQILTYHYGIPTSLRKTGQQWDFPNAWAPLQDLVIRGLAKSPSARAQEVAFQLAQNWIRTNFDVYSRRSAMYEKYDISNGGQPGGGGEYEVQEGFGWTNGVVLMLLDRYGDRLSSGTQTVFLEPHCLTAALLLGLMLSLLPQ

Compound	Hygroscopicity [1]	Hydrolysis by trehalase [2]
OC[C@H]1O[C@H](O[C@H]2O[C@H](CO)[C@@H](O)[C@H](O)[C@H]2O)[C@H](O)[C@@H](O)[C@@H]1O [Example A-6, trehalose]	no substantial hygroscopicity	
OC[C@H]1O[C@H](O[C@H]2O[C@H](CO)[C@@H](O)[C@H](O)[C@H]2O)[C@H](O)[C@@H](O)[C@@H]1O [trehalose, α, α-trehalose]		hydrolyzed by trehalase into glucose molecules
